# Assay results published in US7585895B2, “Therapeutic substituted cyclopentanes” (Allergan, Inc., priority 2005, dated 2009).
# Experiments:
# Dog ocular hyperemia = assay type: in vivo; conditions: Conc. 0.1 g/100 mL
# [1] = Dog intraocular pressure (Max. ΔIOP); assay type: in vivo; conditions: Canis lupus familiaris, Conc. 0.1 g/100 mL
# [2] = Monkey intraocular pressure (Max. ΔIOP); assay type: in vivo; conditions: Primates, Conc. 0.1 g/100 mL
# hEP3A/Gqi5 = molecular target: T1, hEP3A/Gqi5 (Homo sapiens, UniProt P43115); test: FLIPR calcium signal, EP3; assay type: cell-based; conditions: HEK-293(EBNA), read-out: Ca2+ Signal-EC50 (nM) EP3
# T1 construct: expressed in transfected cells
# T1 sequence (P43115 1-390): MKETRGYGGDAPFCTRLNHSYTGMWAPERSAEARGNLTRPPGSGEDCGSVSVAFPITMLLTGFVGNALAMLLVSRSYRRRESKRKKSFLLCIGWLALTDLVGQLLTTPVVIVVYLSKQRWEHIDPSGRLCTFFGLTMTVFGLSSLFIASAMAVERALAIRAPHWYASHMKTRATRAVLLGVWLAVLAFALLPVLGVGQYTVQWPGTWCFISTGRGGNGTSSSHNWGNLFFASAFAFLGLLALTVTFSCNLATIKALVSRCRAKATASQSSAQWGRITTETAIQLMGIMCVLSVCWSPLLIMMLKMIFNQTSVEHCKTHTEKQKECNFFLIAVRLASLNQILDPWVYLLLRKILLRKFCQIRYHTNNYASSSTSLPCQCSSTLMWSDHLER
# Method: (§1) HEK-293(EBNA) cells, stably expressing one type or subtype of recombinant human prostaglandin receptors (prostaglandin receptors expressed: hDP/Gqs5; hEP1; hEP2/Gqs5; hEP3A/Gqi5; hEP4/Gqs5; hFP; hIP; hTP), were cultured in 100 mm culture dishes in high-glucose DMEM medium containing 10% fetal bovine serum, 2 mM 1-glutamine, 250 μg/ml geneticin (G418) and 200 μg/ml hygromycin B as selection markers, and 100 units/ml penicillin G, 100 μg/ml streptomycin and 0.25 μg/ml amphotericin B.
# (§2) Cells were seeded at a density of 5×10^4 cells per well in Biocoat® Poly-D-lysine-coated black-wall, clear-bottom 96-well plates (Becton-Dickinson) and allowed to attach overnight in an incubator at 37° C. Cells were then washed two times with HBSS-HEPES buffer (Hanks Balanced Salt Solution without bicarbonate and phenol red, 20 mM HEPES, pH 7.4) using a Denley Cellwash plate washer (Labsystems). After 45 minutes of dye-loading in the dark, using the calcium-sensitive dye Fluo-4 AM at a final concentration of 2 μM, plates were washed four times with HBSS-HEPES buffer to remove excess dye leaving 100 μl in each well. Plates were re-equilibrated to 37° C. for a few minutes.
# (§3) Cells were excited with an Argon laser at 488 nm, and emission was measured through a 510-570 nm bandwidth emission filter (FLIPR™, Molecular Devices, Sunnyvale, Calif.). Drug solution was added in a 50 μl volume to each well to give the desired final concentration. The peak increase in fluorescence intensity was recorded for each well. On each plate, four wells each served as negative (HBSS-HEPES buffer) and positive controls (standard agonists: BW245C (hDP); PGE2 (HEP1; hEP2/Gqs5; hEP3A/Gqi5; hEP4/Gqs5); PGF2α (hFP); carbacyclin (hIP); U-46619 (hTP), depending on receptor). The peak fluorescence change in each drug-containing well was then expressed relative to the controls.
# (§4) Compounds were tested in a high-throughput (HTS) or concentration-response (CoRe) format. In the HTS format, forty-four compounds per plate were examined in duplicates at a concentration of 10^−5 M. To generate concentration-response curves, four compounds per plate were tested in duplicates in a concentration range between 10^−5 and 10^−11 M. The duplicate values were averaged. In either, HTS or CoRe format each compound was tested on at least 3 separate plates using cells from different passages to give an n≧3.
# hFP = molecular target: T2, hFP (Homo sapiens, UniProt P43088); test: FLIPR calcium signal, FP; assay type: cell-based; conditions: HEK-293(EBNA)
# T2 construct: expressed in transfected cells
# T2 sequence (P43088 whole entry): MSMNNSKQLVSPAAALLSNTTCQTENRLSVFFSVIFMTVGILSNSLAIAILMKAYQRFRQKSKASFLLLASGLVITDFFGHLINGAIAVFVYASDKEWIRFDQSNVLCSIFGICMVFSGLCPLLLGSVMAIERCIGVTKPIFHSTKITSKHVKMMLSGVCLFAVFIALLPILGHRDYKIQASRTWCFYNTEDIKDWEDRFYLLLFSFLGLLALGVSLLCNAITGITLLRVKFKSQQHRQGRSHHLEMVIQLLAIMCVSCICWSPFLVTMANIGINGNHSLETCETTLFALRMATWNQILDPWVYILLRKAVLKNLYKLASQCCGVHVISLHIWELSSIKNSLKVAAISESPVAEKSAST
# Method: as §1, §2, §3, §4
# hIP = molecular target: T3, hIP (Homo sapiens, UniProt P43119); test: FLIPR calcium signal, IP; assay type: cell-based; conditions: HEK-293(EBNA)
# T3 construct: expressed in transfected cells
# T3 sequence (P43119 whole entry): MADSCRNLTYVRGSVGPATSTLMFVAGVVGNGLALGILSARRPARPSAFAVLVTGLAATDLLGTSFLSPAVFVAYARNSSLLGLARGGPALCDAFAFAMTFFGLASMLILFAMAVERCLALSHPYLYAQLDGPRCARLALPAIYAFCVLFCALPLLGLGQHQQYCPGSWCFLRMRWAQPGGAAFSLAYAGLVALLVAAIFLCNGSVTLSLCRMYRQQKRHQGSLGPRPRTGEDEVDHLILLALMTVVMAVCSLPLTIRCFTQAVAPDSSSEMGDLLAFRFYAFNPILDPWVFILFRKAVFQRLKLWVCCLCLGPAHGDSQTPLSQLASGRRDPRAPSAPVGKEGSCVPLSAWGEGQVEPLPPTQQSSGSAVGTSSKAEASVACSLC
# Method: as §1, §2, §3, §4
# hEP2/Gqs5 = molecular target: T4, hEP2/Gqs5 (Homo sapiens, UniProt P43116); test: FLIPR calcium signal, EP2; assay type: cell-based; conditions: HEK-293(EBNA), value outside parentheses, read-out: Ca2+ Signal-EC50 (nM) EP2
# T4 construct: expressed in transfected cells
# T4 sequence (P43116 whole entry): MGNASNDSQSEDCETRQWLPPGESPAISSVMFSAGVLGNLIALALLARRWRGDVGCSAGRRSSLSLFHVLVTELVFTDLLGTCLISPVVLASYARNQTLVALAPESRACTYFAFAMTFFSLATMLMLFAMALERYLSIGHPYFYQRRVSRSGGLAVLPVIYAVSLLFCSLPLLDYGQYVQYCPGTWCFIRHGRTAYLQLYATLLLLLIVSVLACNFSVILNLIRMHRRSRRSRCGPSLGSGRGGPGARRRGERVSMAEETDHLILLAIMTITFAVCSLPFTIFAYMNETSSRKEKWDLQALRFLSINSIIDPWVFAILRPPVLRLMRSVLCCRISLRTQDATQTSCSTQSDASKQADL
# Method: as §1, §2, §3, §4
# hDP/Gqs5 = molecular target: T5, hDP/Gqs5 (Homo sapiens, UniProt Q13258); test: FLIPR calcium signal, DP; assay type: cell-based; conditions: HEK-293(EBNA)
# T5 construct: expressed in transfected cells
# T5 sequence (Q13258 1-359): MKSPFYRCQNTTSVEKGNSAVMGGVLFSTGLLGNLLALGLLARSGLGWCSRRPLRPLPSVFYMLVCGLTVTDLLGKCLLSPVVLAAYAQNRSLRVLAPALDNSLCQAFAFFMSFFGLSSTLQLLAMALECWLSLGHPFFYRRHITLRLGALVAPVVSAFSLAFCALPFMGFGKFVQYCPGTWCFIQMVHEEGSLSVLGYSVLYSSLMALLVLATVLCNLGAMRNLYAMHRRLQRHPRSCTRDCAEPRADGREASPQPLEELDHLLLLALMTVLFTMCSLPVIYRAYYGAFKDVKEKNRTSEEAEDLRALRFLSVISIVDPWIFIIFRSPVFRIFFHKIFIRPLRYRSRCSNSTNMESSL
# Method: as §1, §2, §3, §4
# hTP = molecular target: T6, hTP (Homo sapiens, UniProt P21731); test: FLIPR calcium signal, TP; assay type: cell-based; conditions: HEK-293(EBNA)
# T6 construct: expressed in transfected cells
# T6 sequence (P21731 1-343): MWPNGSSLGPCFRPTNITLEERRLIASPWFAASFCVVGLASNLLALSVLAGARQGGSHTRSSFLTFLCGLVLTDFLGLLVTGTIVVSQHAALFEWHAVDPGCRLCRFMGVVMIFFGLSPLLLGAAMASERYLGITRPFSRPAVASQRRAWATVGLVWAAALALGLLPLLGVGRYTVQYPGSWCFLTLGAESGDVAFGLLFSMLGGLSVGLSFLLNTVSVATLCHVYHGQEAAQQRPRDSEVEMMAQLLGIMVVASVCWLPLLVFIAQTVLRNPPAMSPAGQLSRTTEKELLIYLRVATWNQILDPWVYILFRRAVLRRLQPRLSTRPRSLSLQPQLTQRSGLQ
# Method: as §1, §2, §3, §4
# hEP4/Gqs5 = molecular target: T7, hEP4/Gqs5 (Homo sapiens, UniProt P35408); test: FLIPR calcium signal, EP4; assay type: cell-based; conditions: HEK-293(EBNA)
# T7 construct: expressed in transfected cells
# T7 sequence (P35408 whole entry): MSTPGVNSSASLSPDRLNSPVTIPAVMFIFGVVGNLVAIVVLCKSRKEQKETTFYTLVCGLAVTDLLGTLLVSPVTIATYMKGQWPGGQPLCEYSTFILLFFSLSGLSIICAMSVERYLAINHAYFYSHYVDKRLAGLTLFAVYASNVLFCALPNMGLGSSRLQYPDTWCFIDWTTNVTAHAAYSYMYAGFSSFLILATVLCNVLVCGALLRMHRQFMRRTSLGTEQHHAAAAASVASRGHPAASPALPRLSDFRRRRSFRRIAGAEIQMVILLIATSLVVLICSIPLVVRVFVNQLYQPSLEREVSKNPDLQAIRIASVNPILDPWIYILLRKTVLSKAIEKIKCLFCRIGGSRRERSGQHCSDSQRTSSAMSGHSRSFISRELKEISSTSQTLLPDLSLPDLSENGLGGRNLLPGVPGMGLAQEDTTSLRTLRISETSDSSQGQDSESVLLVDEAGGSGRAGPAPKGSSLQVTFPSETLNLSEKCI
# Method: as §1, §2, §3, §4
# hEP1 = molecular target: T8, hEP1 (Homo sapiens, UniProt P34995); test: FLIPR calcium signal, EP1; assay type: cell-based; conditions: HEK-293(EBNA), read-out: Ca2+ Signal-EC50 (nM) EP1
# T8 construct: expressed in transfected cells
# T8 sequence (P34995 1-402): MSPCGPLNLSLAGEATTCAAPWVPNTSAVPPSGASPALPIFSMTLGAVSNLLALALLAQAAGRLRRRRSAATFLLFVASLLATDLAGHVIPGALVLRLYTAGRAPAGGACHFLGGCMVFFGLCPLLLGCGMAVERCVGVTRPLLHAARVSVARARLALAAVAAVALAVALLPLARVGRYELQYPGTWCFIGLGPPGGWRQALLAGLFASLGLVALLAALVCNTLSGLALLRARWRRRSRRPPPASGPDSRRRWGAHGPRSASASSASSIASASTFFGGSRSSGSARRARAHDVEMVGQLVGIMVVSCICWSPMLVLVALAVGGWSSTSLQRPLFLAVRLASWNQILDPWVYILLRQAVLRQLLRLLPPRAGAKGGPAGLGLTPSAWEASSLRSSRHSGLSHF
# Method: as §1, §2, §3, §4
DOG Max. hpyeremia (Dog ocular hyperemia),EC50 (hEP3A/Gqi5) [nM],Ca2+ Signal-EC50 (nM) FP (hFP),Ca2+ Signal-EC50 (nM) IP (hIP),EC50 (hEP2/Gqs5) [nM],Ca2+ Signal-EC50 (nM) DP (hDP/Gqs5),Ca2+ Signal-EC50 (nM) TP (hTP),Ca2+ Signal-EC50 (nM) EP4 (hEP4/Gqs5),EC50 (hEP1) [nM],SMILES,change in vivo at 1000 µg/mL [1] [%],change in vivo at 1000 µg/mL [2] [%]
0.5,–,–,–,–,–,–,–,–,CCCCCCc1ccc([C@@H]2[C@@H](C/C=C\CCCC(=O)OC(C)C)[C@H](Cl)C[C@H]2O)cc1 [compound 7],20,21
–,4150,not active,not active,2450,not active,not active,not active,917,"CCCCCC(O)c1ccc([C@@H]2[C@@H](CCCc3cccc(C(=O)O)c3)[C@H](Cl)C[C@H]2O)cc1 (stereo partly drawn) [Entry 1, 3-(3-{(1R,2S,3R,5R)-5-Chloro-3-hydroxy-2-[4-(1-hydroxy-hexyl)-phenyl]-cyclopentyl}-propyl)-benzoic acid]",–,–
